Results from PubChem BioAssay AID623936 (Southern Research Specialized Biocontainment Screening …, 2012).

Tested on: Vero 76 cells viability (cytotoxicity)
Assay: Vero 76 cell cytotoxicity, dose response, cytotoxicity control, set 4 (AID 623936)

CN(C(=O)Cc1cccs1)c1nc2c(s1)CCCC2
CC50: 18.5 µM
